Experimental data: patent US11629139B2 (priority 2017, dated 2023)
pIC50: −log10 of the molar value. Where two headings read alike, the source gives them in different places.

Key:
[1] = mouse, in vivo
[2] = pH 7.4
[3] = plasma
[4] = system: vesicular stomatitis virus particles (VSV) pseudotyped with EboV Zaire GP; experiment: microbe, parasite or virus in culture; type: cell-based
in vitro = conditions: mouse, microsomes
physchem = conditions: pH 7.4, aqueous buffer, kinetic from dmso stock
in vivo = conditions: mouse, po, 25 mg/kg

SMILES: CS(=O)(=O)c1ccc(COc2ccc(Cl)cc2CN2CCN(C(=O)CNC(=O)C3CC34CCC(F)(F)CC4)CC2)cc1 (racemic) [(racemic)-1476]
- Concentration required to reduce cell viability by 50% (cell viability): exceeded 10 μM

SMILES: [2H]C([2H])(c1cc(Cl)ccc1NCc1ccc(S(C)(=O)=O)cc1)N1CCN(C(=O)CNC(=O)C2CC23CCC(F)(F)CC3)CC1 (racemic) [(racemic)-1503]
- Concentration required to reduce cell viability by 50% (cell viability): exceeded 10 μM

SMILES: Nc1ccc(Cl)cc1CN1CCN(C(=O)CNC(=O)C2CC23CCC(F)(F)CC3)CC1 (single isomer, unassigned; (-)) [(−)-1413]
- Cmax ([1]; po, 50 mg/kg): 19.5 µM

SMILES: CS(=O)(=O)c1ccc(COc2ccc(Cl)cc2CN2CCN(C(=O)CNC(=O)C3CC34CCC(F)(F)CC4)CC2)cc1 (single isomer, unassigned; (-)) [(−)-1476]
- Kinetic solubility [2]: 10 µM
- MLM, T½ (min) (ritonavir 3 μM) (mouse, microsomes): >120 min
- Mouse PPB (% bound) [3]: 97.6%
- C@12 hr [1]: 4.7 µM
- Cl_obs [1]: 11.9 mL/min/kg
- Plasma concentration after 12 hours relative to in vitro IC50 against rVSV EBOV infection in 50% human serum [1]: 50 fold
- AUClast ([1]; po, 50 mg/kg): 116.4 µM·h
- Cmax ([1]; po, 50 mg/kg): 10.4 µM
- T1/2 ([1]; po, 50 mg/kg): 132 min
- Tmax ([1]; po, 50 mg/kg): 240 min

SMILES: CS(=O)(=O)c1ccc(CNc2ccc(Cl)cc2CN2CCN(C(=O)CNC(=O)C3CC34CCC(F)(F)CC4)CC2)cc1 (single isomer, unassigned; (-)) [(−)-1503]
- Cmax ([1]; po, 50 mg/kg): 7.4 µM

SMILES: O=C(CC12CC3(F)CC(F)(CC(F)(C3)C1)C2)NCC(=O)N1CCN(Cc2ccccc2OCc2ccc(Br)cc2)CC1 [Compound 1254]
- pIC50 ([4]; Vesicular stomatitis virus): 6.70
- half-life (in vitro; pH 7.4, MLM T½ (min)): 1 min

SMILES: Nc1ccc(Cl)cc1CN1CCN(C(=O)CNC(=O)CC2CCC(F)(F)CC2)CC1 [Compound 1343, N-(2-(4-(2-Amino-5-chlorobenzyl)piperazin-1-yl)-2-oxoethyl)-2-(4,4-difluorocyclohexyl)acetamide]
- solubility kinetic (physchem): > 100 µM
- Sol [2]: >100 mM
- pIC50 ([4]; Vesicular stomatitis virus): 6.49
- Mouse PPB (% bound) [3]: 86.9%
- half-life (in vitro; pH 7.4, MLM T½ (min)): 9 min
- half-life (in vitro; pH 7.4, T1/2(min)): 8.7 min

SMILES: Nc1ccc(Cl)cc1CN1CCN(C(=O)CNC(=O)C2CC23CCC(F)(F)CC3)CC1 (stereo not shown) [Compound 1373, N-(2-(4-(2-Amino-5-chlorobenzyl)piperazin-1-yl)-2-oxoethyl)-6,6-difluorospiro[2.5]octane-1-carboxamide]
- pIC50 ([4]; Vesicular stomatitis virus): 7.00
- half-life (in vitro; pH 7.4, T1/2(min)): 1.3 min

SMILES: [2H]C([2H])(c1cc(Cl)ccc1N)N1CCN(C(=O)CNC(=O)CC2CCC(F)(F)CC2)CC1 [Compound 1412, N-(2-(4-((2-amino-5-chlorophenyl)methyl-d2)piperazin-1-yl)-2-oxoethyl)-2-(4,4-difluorocyclohexyl)acetamide]
- solubility kinetic (physchem): > 100 µM
- Kinetic solubility [2]: 93 µM
- Sol [2]: >100 mM
- pIC50 [4]: 7.17
- pIC50 ([4]; Vesicular stomatitis virus): 6.89
- Effect of CYP3A4 inhibition on T1/2 (FIG. 9) (mouse, microsomes): improves
- T1/2 (min) (mouse, microsomes, pH 7.4): 1.4/144 min
- Increase of stability in mouse liver microsomes by ritonavir (pH 7.4): 10- to 30 fold
- half-life (in vitro; pH 7.4, Microsome T1/2): 8.7 to 13 min
- half-life (in vitro; pH 7.4, T1/2(min)): 13 min
- half-life (in vitro; pH 7.4, T1/2 + ritonavir (min)): 144 min
- C@12 hr [1]: 1.7 µM
- Cl_obs [1]: 12.3 mL/min/kg
- Decrease of the clearance by co-administration of ritonavir ([1]; po): ~4 fold
- Increase of the AUC by co-administration of ritonavir ([1]; po): ~4 fold
- C@12 hr ([1]; po, 25 mg/kg): 0.2 µM
- Cl_obs ([1]; po, 25 mg/kg): 49.0 mL/min/kg
- Cmax ([1]; po, 25 mg/kg): 7.2 µM
- T1/2 ([1]; po, 25 mg/kg): 138 min
- Cmax (in vivo): 12 µM

SMILES: [2H]C([2H])(c1cc(Cl)ccc1N)N1CCN(C(=O)CNC(=O)C2CC23CCC(F)(F)CC3)CC1 (stereo not shown) [Compound 1413, N-(2-(4-((2-amino-5-chlorophenyl)methyl-d2)piperazin-1-yl)-2-oxoethyl)-6,6-difluorospiro[2.5]octane-1-carboxamide]
- solubility kinetic (physchem): > 100 µM
- pIC50 [4]: 6.89
- pIC50 ([4]; Vesicular stomatitis virus): 7.17
- T1/2 (min) (mouse, microsomes, pH 7.4): 13/215 min
- half-life (in vitro; pH 7.4, Microsome T1/2): 1.4 to 2 min
- half-life (in vitro; pH 7.4, T1/2(min)): 2 min
- half-life (in vitro; pH 7.4, T1/2 + ritonavir (min)): 215 min

SMILES: [2H]C([2H])(c1cc(Cl)ccc1NCc1ccc(C(=O)OC)cn1)N1CCN(C(=O)CNC(=O)C2CC23CCC(F)(F)CC3)CC1 (stereo not shown) [Compound 1548, 6-{[4-Chloro-2-(4-{2-[(6,6-difluoro-spiro[2.5]octane-1-carbonyl)-amino]-acetyl}-piperazin-1-yl-di-deutero-methyl)-phenylamino]-methyl}-nicotinic acid methyl ester]
- pIC50 ([4]; Vesicular stomatitis virus): 8.15

SMILES: [2H]C([2H])(c1cc(Cl)ccc1NCc1ccc(C(=O)OC)nc1)N1CCN(C(=O)CNC(=O)C2CC23CCC(F)(F)CC3)CC1 (stereo not shown) [Compound 1549, 5-{[4-Chloro-2-(4-{2-[(6,6-difluoro-spiro[2.5]octane-1-carbonyl)-amino]-acetyl}-piperazin-1-yl-di-deutero-methyl)-phenylamino]-methyl}-pyridine-2-carboxylic acid methyl ester]
- pIC50 ([4]; Vesicular stomatitis virus): 7.30

SMILES: [2H]C([2H])(c1cc(Cl)ccc1NCc1cnco1)N1CCN(C(=O)CNC(=O)C2CC23CCC(F)(F)CC3)CC1 (stereo not shown) [Compound 1560]
- pIC50 ([4]; Vesicular stomatitis virus): 7.40

SMILES: [2H]C([2H])(c1cc(Cl)ccc1NCc1ccc(S(C)(=O)=O)c(F)c1)N1CCN(C(=O)CNC(=O)[C@@H]2CC23CCC(F)(F)CC3)CC1 [Compound 1561]
- pIC50 ([4]; Vesicular stomatitis virus): 8.10

SMILES: [2H]C([2H])(c1cc(Cl)ccc1NCc1ccc(S(C)(=O)=O)cc1F)N1CCN(C(=O)CNC(=O)[C@@H]2CC23CCC(F)(F)CC3)CC1 [Compound 1562]
- pIC50 ([4]; Vesicular stomatitis virus): 7.89

SMILES: [2H]C([2H])(c1cc(Cl)ccc1NCc1ncccn1)N1CCN(C(=O)CNC(=O)[C@@H]2CC23CCC(F)(F)CC3)CC1 [Compound 1580]
- pIC50 ([4]; Vesicular stomatitis virus): 6.15

SMILES: [2H]C([2H])(c1cc(Cl)ccc1NCc1ccon1)N1CCN(C(=O)CNC(=O)[C@@H]2CC23CCC(F)(F)CC3)CC1 [Compound 1581]
- pIC50 ([4]; Vesicular stomatitis virus): 6.33

SMILES: [2H]C([2H])(c1cc(Cl)ccc1NCc1ccc(F)cn1)N1CCN(C(=O)CNC(=O)[C@@H]2CC23CCC(F)(F)CC3)CC1 [Compound 1582]
- pIC50 ([4]; Vesicular stomatitis virus): 6.62

SMILES: [2H]C([2H])(c1cc(Cl)ccc1NCc1cocn1)N1CCN(C(=O)CNC(=O)[C@@H]2CC23CCC(F)(F)CC3)CC1 [Compound 1583]
- pIC50 ([4]; Vesicular stomatitis virus): 6.82

SMILES: [2H]C([2H])(c1cc(Cl)ccc1NCc1ccc(C#N)cn1)N1CCN(C(=O)CNC(=O)[C@@H]2CC23CCC(F)(F)CC3)CC1 [Compound 1584]
- pIC50 ([4]; Vesicular stomatitis virus): 7.52

SMILES: O=C(NCC(=O)N1CCN(Cc2cc(Cl)ccc2NCc2ncco2)CC1)[C@@H]1CC12CCC(F)(F)CC2 [Compound 1585]
- pIC50 ([4]; Vesicular stomatitis virus): 5.89

SMILES: [2H]C([2H])(c1cc(Cl)ccc1NCc1ccc(S(C)(=O)=O)cn1)N1CCN(C(=O)CNC(=O)[C@@H]2CC23CCC(F)(F)CC3)CC1 [Compound 1586]
- pIC50 ([4]; Vesicular stomatitis virus): 7.35

SMILES: [2H]C([2H])(c1cc(Cl)ccc1NCc1cnco1)N1CCN(C(=O)CNC(=O)[C@@H]2CC23CCC(F)(F)CC3)CC1 [Compound 1587]
- pIC50 ([4]; Vesicular stomatitis virus): 6.89

SMILES: CS(=O)(=O)c1ccc(COc2ccc(Cl)cc2CN2CCN(C(=O)CNC(=O)C3CC34CCC(F)(F)CC4)CC2)nc1 (stereo not shown) [Compound 1621, 6,6-Difluoro-spiro[2.5]octane-1-carboxylic acid (2-{4-[5-chloro-2-(5-methanesulfonyl-pyridin-2-ylmethoxy)-benzyl]-piperazin-1-yl}-2-oxo-ethyl)-amide]
- pIC50 ([4]; Vesicular stomatitis virus): 7.52

SMILES: N#Cc1ccc(COc2ccc(Cl)cc2CN2CCN(C(=O)CNC(=O)C3CC34CCC(F)(F)CC4)CC2)nc1 (stereo not shown) [Compound 1622, 6,6-Difluoro-spiro[2.5]octane-1-carboxylic acid (2-{4-[5-chloro-2-(5-cyano-pyridin-2-ylmethoxy)-benzyl]-piperazin-1-yl)-2-oxo-ethyl)-amide]
- pIC50 ([4]; Vesicular stomatitis virus): 7.72

SMILES: CNC(=O)c1ccc(COc2ccccc2CN2CCN(C(=O)CNC(=O)CC34CC5CC(CC(C5)C3)C4)CC2)cc1 [Compound 1801]
- pIC50 ([4]; Vesicular stomatitis virus): 5.68

SMILES: CN(C)C(=O)c1ccc(COc2ccccc2CN2CCN(C(=O)CNC(=O)CC34CC5CC(CC(C5)C3)C4)CC2)cc1 [Compound 1802]
- pIC50 ([4]; Vesicular stomatitis virus): 5.48

SMILES: NC(=O)c1ccc(Cl)cc1CN1CCN(C(=O)CNC(=O)CC23CC4CC(CC(C4)C2)C3)CC1 [Compound 1804]
- pIC50 ([4]; Vesicular stomatitis virus): 5.72

SMILES: O=C(CNC(=O)C12CC3CC(C1)CC(c1ccc(O)c([N+](=O)[O-])c1)(C3)C2)N1CCN(Cc2ccccc2OCc2ccc(Br)cc2)CC1 [Compound 1805, (1s,3r,5R,7S)—N-(2-(4-(2-((4-bromobenzyl)oxy)benzyl)piperazin-1-yl)-2-oxoethyl)-3-(4-hydroxy-3-nitrophenyl)adamantane-1-carboxamide]
- pIC50 ([4]; Vesicular stomatitis virus): 6.22

SMILES: Nc1ccc(Cl)cc1CN1CCN(C(=O)CNC(=O)C2CC23CCCC3)CC1 (stereo not shown) [Compound 1806, N-(2-(4-(2-Amino-5-chlorobenzyl)piperazin-1-yl)-2-oxoethyl)spiro[2.4]heptane-1-carboxamide]
- pIC50 ([4]; Vesicular stomatitis virus): 6.62

SMILES: Nc1ccc(Cl)cc1CN1CCN(C(=O)CNC(=O)C2CC23CCC3)CC1 (stereo not shown) [Compound 1807, N-(2-(4-(2-Amino-5-chlorobenzyl)piperazin-1-yl)-2-oxoethyl)spiro[2.3]hexane-1-carboxamide]
- pIC50 ([4]; Vesicular stomatitis virus): 5.60

SMILES: CC(C)c1nc(CN(C)C(=O)N[C@H](C(=O)N[C@@H](Cc2ccccc2)C[C@H](O)[C@H](Cc2ccccc2)NC(=O)OCc2cncs2)C(C)C)cs1 [Ritonavir, reference compound]
- pIC50 ([4]; Vesicular stomatitis virus, read-out: IC50, VSV EBOV infection): < 4.60
